Source: patent publication US10294202B2, “Pyrrolidinones as herbicides” (FMC Corporation, priority 2013, dated 2019)

Tests used:
Experiment in all cases: Test D pre-/postemergence herbicide test
oat, wild = type: in vivo, Avena fatua; details: for Plant response rating: Postemergence, Oat, Wild, scale 0 to 100; for Plant response rating, Oat, Wild: Preemergence, scale 0 to 100 (0 no effect, 100 complete control)
From the text: (§1) Seeds of plant species selected from bluegrass (annual bluegrass, Poa annua), blackgrass (Alopecurus myosuroides), canarygrass (littleseed canarygrass, Phalaris minor), chickweed (common chickweed, Stellaria media), galium (catchweed bedstraw, Galium aparine), bromegrass, downy (downy bromegrass, Bromus tectorum), field poppy (Papaver rhoeas), field violet (Viola arvensis), foxtail, green (green foxtail, Setaria viridis), deadnettle (henbit deadnettle, Lamium amplexicaule), ryegrass, Italian (Italian ryegrass, Lolium multiflorum), kochia (Kochia scoparia), lambsquarters (Chenopodium album), oilseed rape (Brassica napus), pigweed (Amaranthus retroflexus), chamomile (scentless chamomile, Matricaria inodora), Russian thistle (Salsola kali), speedwell (bird's-eye speedwell, Veronica persica), barley, spring (spring barley, Hordeum vulgare), wheat, spring (spring wheat, Triticum aestivum), buckwheat, wild (wild buckwheat, Polygonum convolvulus), mustard, wild (wild mustard, Sinapis arvensis), oat, wild (wild oat, Avena fatua), radish, wild (wild radish, Raphanus raphanistrum), […]), barley, winter (winter barley, Hordeum vulgare), and wheat, winter (winter wheat, Triticum aestivum) were planted into a silt loam soil and treated preemergence with test chemicals formulated in a non-phytotoxic solvent mixture which included a surfactant. At the same time, these species were planted in pots containing Redi-Earth® planting medium (Scotts Company, 14111 Scottslawn Road, Marysville, Ohio 43041) comprising spaghnum peat moss, vermiculite, wetting agent and starter nutrients and treated with postemergence applications of the test chemicals formulated in the same manner. Plants ranged in height from 2 to 18 cm (1- to 4-leaf stage). Treated plants and controls were maintained in a controlled growth environment for 7 to 21 days after which time all species were compared to controls and visually evaluated. Plant response ratings, summarized in Table D, are based on a scale of 0 to 100 where 0 is no effect and 100 is complete control. A dash (-) response means no test result.

barley, spring = type: in vivo, Hordeum vulgare; details: for Plant response rating: Barley, Spring, scale 0 to 100; for Plant response rating, Barley, Spring: scale 0 to 100 (0 no effect, 100 complete control)
From the text: as §1

barley, winter = type: in vivo, Hordeum vulgare; details: for Plant response rating: Barley, Winter, scale 0 to 100; for Plant response rating, Barley, Winter: scale 0 to 100 (0 no effect, 100 complete control)
From the text: as §1

deadnettle = type: in vivo, Lamium amplexicaule; details: for Plant response rating: Deadnettle, scale 0 to 100; for Plant response rating, Deadnettle: scale 0 to 100 (0 no effect, 100 complete control)
From the text: as §1

ryegrass, Italian = type: in vivo, Lolium multiflorum; details: for Plant response rating: Postemergence, Ryegrass, Italian, scale 0 to 100; for Plant response rating, Ryegrass, Italian: Preemergence, scale 0 to 100 (0 no effect, 100 complete control)
From the text: as §1

O=C1NCC(c2ccc(F)c(F)c2)C1C(=O)Nc1cccc(F)c1 (racemic) [Compound 12]
Plant response rating (oat, wild; 16 g ai/ha): 0
Plant response rating (oat, wild; 31 g ai/ha): 0
Plant response rating (oat, wild; 62 g ai/ha): 10
Plant response rating (oat, wild; 125 g ai/ha): 15
Plant response rating (oat, wild; 250 g ai/ha): 20
Plant response rating, Oat, Wild (oat, wild; 31 g ai/ha): 0
Plant response rating, Oat, Wild (oat, wild; 62 g ai/ha): 0
Plant response rating, Oat, Wild (oat, wild; 125 g ai/ha): 0
Plant response rating, Oat, Wild (oat, wild; 250 g ai/ha): 0
Plant response rating, Oat, Wild (oat, wild; 16 g ai/ha): 0
Plant response rating (barley, spring; Postemergence, 16 g ai/ha): 0
Plant response rating (barley, spring; Postemergence, 31 g ai/ha): 0
Plant response rating (barley, spring; Postemergence, 62 g ai/ha): 5
Plant response rating (barley, spring; Postemergence, 125 g ai/ha): 5
Plant response rating (barley, spring; Postemergence, 250 g ai/ha): 5
Plant response rating, Barley, Spring (barley, spring; Preemergence, 31 g ai/ha): 0
Plant response rating, Barley, Spring (barley, spring; Preemergence, 62 g ai/ha): 0
Plant response rating, Barley, Spring (barley, spring; Preemergence, 16 g ai/ha): 0
Plant response rating (barley, spring; Preemergence, 125 g ai/ha): 0
Plant response rating (barley, spring; Preemergence, 250 g ai/ha): 0
Plant response rating (barley, winter; Postemergence, 16 g ai/ha): 0
Plant response rating (barley, winter; Postemergence, 31 g ai/ha): 0
Plant response rating (barley, winter; Postemergence, 62 g ai/ha): 0
Plant response rating (barley, winter; Postemergence, 125 g ai/ha): 0
Plant response rating (barley, winter; Postemergence, 250 g ai/ha): 0
Plant response rating, Barley, Winter (barley, winter; Preemergence, 31 g ai/ha): 0
Plant response rating, Barley, Winter (barley, winter; Preemergence, 62 g ai/ha): 0
Plant response rating, Barley, Winter (barley, winter; Preemergence, 16 g ai/ha): 0
Plant response rating (barley, winter; Preemergence, 125 g ai/ha): 0
Plant response rating (barley, winter; Preemergence, 250 g ai/ha): 0
Plant response rating (deadnettle; Postemergence, 16 g ai/ha): 0
Plant response rating (deadnettle; Postemergence, 31 g ai/ha): 0
Plant response rating (deadnettle; Postemergence, 62 g ai/ha): 10
Plant response rating (deadnettle; Postemergence, 125 g ai/ha): 15
Plant response rating (deadnettle; Postemergence, 250 g ai/ha): 20
Plant response rating, Deadnettle (deadnettle; Preemergence, 31 g ai/ha): 0
Plant response rating, Deadnettle (deadnettle; Preemergence, 62 g ai/ha): 0
Plant response rating, Deadnettle (deadnettle; Preemergence, 16 g ai/ha): 0
Plant response rating (deadnettle; Preemergence, 125 g ai/ha): 0
Plant response rating (deadnettle; Preemergence, 250 g ai/ha): 50
Plant response rating (ryegrass, Italian; 16 g ai/ha): 0
Plant response rating (ryegrass, Italian; 31 g ai/ha): 0
Plant response rating (ryegrass, Italian; 62 g ai/ha): 0
Plant response rating (ryegrass, Italian; 125 g ai/ha): 10
Plant response rating (ryegrass, Italian; 250 g ai/ha): 15
Plant response rating, Ryegrass, Italian (ryegrass, Italian; 31 g ai/ha): 0
Plant response rating, Ryegrass, Italian (ryegrass, Italian; 62 g ai/ha): 0
Plant response rating, Ryegrass, Italian (ryegrass, Italian; 125 g ai/ha): 0
Plant response rating, Ryegrass, Italian (ryegrass, Italian; 250 g ai/ha): 0
Plant response rating, Ryegrass, Italian (ryegrass, Italian; 16 g ai/ha): 0

O=C1NCC(c2cc(F)c(F)c(F)c2)C1C(=O)Nc1ccccc1F (racemic) [Compound 34]
Plant response rating (oat, wild; 16 g ai/ha): 0
Plant response rating (oat, wild; 31 g ai/ha): 0
Plant response rating (oat, wild; 62 g ai/ha): 0
Plant response rating (oat, wild; 125 g ai/ha): 0
Plant response rating (oat, wild; 250 g ai/ha): 0
Plant response rating (barley, spring; Postemergence, 16 g ai/ha): 0
Plant response rating (barley, spring; Postemergence, 31 g ai/ha): 0
Plant response rating (barley, spring; Postemergence, 62 g ai/ha): 0
Plant response rating (barley, spring; Postemergence, 125 g ai/ha): 0
Plant response rating (barley, spring; Postemergence, 250 g ai/ha): 0
Plant response rating (barley, winter; Postemergence, 16 g ai/ha): 0
Plant response rating (barley, winter; Postemergence, 31 g ai/ha): 0
Plant response rating (barley, winter; Postemergence, 62 g ai/ha): 0
Plant response rating (barley, winter; Postemergence, 125 g ai/ha): 0
Plant response rating (barley, winter; Postemergence, 250 g ai/ha): 0
Plant response rating (deadnettle; Postemergence, 16 g ai/ha): 0
Plant response rating (deadnettle; Postemergence, 31 g ai/ha): 0
Plant response rating (deadnettle; Postemergence, 62 g ai/ha): 0
Plant response rating (deadnettle; Postemergence, 125 g ai/ha): 0
Plant response rating (deadnettle; Postemergence, 250 g ai/ha): 0
Plant response rating (ryegrass, Italian; 16 g ai/ha): 0
Plant response rating (ryegrass, Italian; 31 g ai/ha): 0
Plant response rating (ryegrass, Italian; 62 g ai/ha): 0
Plant response rating (ryegrass, Italian; 125 g ai/ha): 0
Plant response rating (ryegrass, Italian; 250 g ai/ha): 0

O=C1NCC(c2cccc(C(F)(F)F)c2)C1C(=O)Nc1cccc(F)c1F (centres unmarked) [Compound 241]
Plant response rating, Oat, Wild (oat, wild; 31 g ai/ha): 15
Plant response rating, Oat, Wild (oat, wild; 62 g ai/ha): 15
Plant response rating, Oat, Wild (oat, wild; 125 g ai/ha): 20
Plant response rating, Oat, Wild (oat, wild; 250 g ai/ha): 55
Plant response rating, Barley, Spring (barley, spring; Preemergence, 31 g ai/ha): 0
Plant response rating, Barley, Spring (barley, spring; Preemergence, 62 g ai/ha): 10
Plant response rating, Barley, Spring (barley, spring; Preemergence, 125 g ai/ha): 20
Plant response rating (barley, spring; Preemergence, 250 g ai/ha): 35
Plant response rating, Barley, Winter (barley, winter; Preemergence, 31 g ai/ha): 10
Plant response rating, Barley, Winter (barley, winter; Preemergence, 62 g ai/ha): 10
Plant response rating, Barley, Winter (barley, winter; Preemergence, 125 g ai/ha): 30
Plant response rating (barley, winter; Preemergence, 250 g ai/ha): 65
Plant response rating, Deadnettle (deadnettle; Preemergence, 31 g ai/ha): 35
Plant response rating, Deadnettle (deadnettle; Preemergence, 62 g ai/ha): 30
Plant response rating, Deadnettle (deadnettle; Preemergence, 125 g ai/ha): 35
Plant response rating (deadnettle; Preemergence, 250 g ai/ha): 45
Plant response rating, Ryegrass, Italian (ryegrass, Italian; 31 g ai/ha): 15
Plant response rating, Ryegrass, Italian (ryegrass, Italian; 62 g ai/ha): 20
Plant response rating, Ryegrass, Italian (ryegrass, Italian; 125 g ai/ha): 20
Plant response rating, Ryegrass, Italian (ryegrass, Italian; 250 g ai/ha): 50

O=C1NCC(c2cc(F)c(F)c(F)c2)C1C(=O)Nc1ccccc1C(F)(F)F (racemic) [Compound 33]
Plant response rating (oat, wild; 16 g ai/ha): 0
Plant response rating (oat, wild; 31 g ai/ha): 0
Plant response rating (oat, wild; 62 g ai/ha): 0
Plant response rating (oat, wild; 125 g ai/ha): 0
Plant response rating (oat, wild; 250 g ai/ha): 0
Plant response rating (barley, spring; Postemergence, 16 g ai/ha): 0
Plant response rating (barley, spring; Postemergence, 31 g ai/ha): 0
Plant response rating (barley, spring; Postemergence, 62 g ai/ha): 0
Plant response rating (barley, spring; Postemergence, 125 g ai/ha): 0
Plant response rating (barley, spring; Postemergence, 250 g ai/ha): 0
Plant response rating (barley, winter; Postemergence, 16 g ai/ha): 0
Plant response rating (barley, winter; Postemergence, 31 g ai/ha): 0
Plant response rating (barley, winter; Postemergence, 62 g ai/ha): 0
Plant response rating (barley, winter; Postemergence, 125 g ai/ha): 0
Plant response rating (barley, winter; Postemergence, 250 g ai/ha): 0
Plant response rating (deadnettle; Postemergence, 16 g ai/ha): 0
Plant response rating (deadnettle; Postemergence, 31 g ai/ha): 0
Plant response rating (deadnettle; Postemergence, 62 g ai/ha): 0
Plant response rating (deadnettle; Postemergence, 125 g ai/ha): 0
Plant response rating (deadnettle; Postemergence, 250 g ai/ha): 10
Plant response rating (ryegrass, Italian; 16 g ai/ha): 0
Plant response rating (ryegrass, Italian; 31 g ai/ha): 0
Plant response rating (ryegrass, Italian; 62 g ai/ha): 0
Plant response rating (ryegrass, Italian; 125 g ai/ha): 0
Plant response rating (ryegrass, Italian; 250 g ai/ha): 0

O=C1NCC(c2cccc(C(F)(F)F)c2)C1C(=O)Nc1ccc(F)cc1F (racemic) [Compound 207]
Plant response rating, Oat, Wild (oat, wild; 31 g ai/ha): 0
Plant response rating, Oat, Wild (oat, wild; 62 g ai/ha): 0
Plant response rating, Oat, Wild (oat, wild; 125 g ai/ha): 5
Plant response rating, Oat, Wild (oat, wild; 250 g ai/ha): 20
Plant response rating, Barley, Spring (barley, spring; Preemergence, 31 g ai/ha): 0
Plant response rating, Barley, Spring (barley, spring; Preemergence, 62 g ai/ha): 5
Plant response rating, Barley, Spring (barley, spring; Preemergence, 125 g ai/ha): 20
Plant response rating (barley, spring; Preemergence, 250 g ai/ha): 25
Plant response rating, Barley, Winter (barley, winter; Preemergence, 31 g ai/ha): 5
Plant response rating, Barley, Winter (barley, winter; Preemergence, 62 g ai/ha): 10
Plant response rating, Barley, Winter (barley, winter; Preemergence, 125 g ai/ha): 25
Plant response rating (barley, winter; Preemergence, 250 g ai/ha): 45
Plant response rating, Deadnettle (deadnettle; Preemergence, 31 g ai/ha): 0
Plant response rating, Deadnettle (deadnettle; Preemergence, 62 g ai/ha): 0
Plant response rating, Deadnettle (deadnettle; Preemergence, 125 g ai/ha): 20
Plant response rating (deadnettle; Preemergence, 250 g ai/ha): 20
Plant response rating, Ryegrass, Italian (ryegrass, Italian; 31 g ai/ha): 0
Plant response rating, Ryegrass, Italian (ryegrass, Italian; 62 g ai/ha): 5
Plant response rating, Ryegrass, Italian (ryegrass, Italian; 125 g ai/ha): 5
Plant response rating, Ryegrass, Italian (ryegrass, Italian; 250 g ai/ha): 15
